From patent US20260250290A1 (BRISTOL-MYERS SQUIBB COMPANY, priority 2023, published 2026) come the findings set out here.

Broadly, the IC50 is the concentration needed to halve the response being measured.

In one experiment the target is T1, SGK1 (Homo sapiens, UniProt O00141).
T1 sequence (O00141 1-431): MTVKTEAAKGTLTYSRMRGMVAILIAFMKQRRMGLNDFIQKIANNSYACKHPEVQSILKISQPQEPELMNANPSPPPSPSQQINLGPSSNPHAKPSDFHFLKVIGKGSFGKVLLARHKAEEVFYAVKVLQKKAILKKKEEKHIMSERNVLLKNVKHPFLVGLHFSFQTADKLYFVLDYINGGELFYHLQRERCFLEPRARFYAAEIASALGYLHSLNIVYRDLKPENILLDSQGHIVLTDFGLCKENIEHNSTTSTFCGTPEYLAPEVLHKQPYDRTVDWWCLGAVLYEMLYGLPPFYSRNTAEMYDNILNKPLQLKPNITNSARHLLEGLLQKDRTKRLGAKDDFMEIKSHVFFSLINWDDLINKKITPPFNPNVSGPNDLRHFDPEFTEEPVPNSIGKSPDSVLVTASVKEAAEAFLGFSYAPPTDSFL
The experiment is described as follows: SGK1 inhibition Assay B (Echo mass spectrometry of phosphorylated peptide product). It is filed as biochemical. The conditions noted are these: 60 min at room temperature.

In the next experiment the target is T2, full length SGK1 (Homo sapiens, UniProt O00141).
T2 construct: 125 μM full length SGK1 (Life Technologies Part #PR7358A); purchased Life Technologies PR7358A
T2 sequence (O00141 1-431): T1 sequence (O00141 1-431)
Description: SGK1 inhibition Assay A (Caliper LabChip electrophoretic separation of fluorescent peptide substrate and phosphorylated product). Format: biochemical. The conditions noted are these: Assay A; 20 μM ATP, 40 min incubation; read-out: SGK1 IC50.

At SGK1, `CC(=O)N1CC=C(c2cc(N3CCC[C@@H](NC(=O)[C@]45CCC[C@H]4C5)C3)c3c(N)ncnn23)C1` (mixture of isomers) [Example 916, (cis)-N-[(3R)-1-[7-(1-acetyl-2,5-dihydro-1H-pyrrol-3-yl)-4-aminopyrrolo[2,1-f][1,2,4]triazin-5-yl]piperidin-3-yl]bicyclo[3.1.0]hexane-1-carboxamide] had an IC50 of 56 nM.

As for `Cc1nc(OC2CCC(NC3CC3)CC2)c(C(=O)N[C@@H]2CCCN(c3cc(-c4ccc(C(N)=O)c(F)c4)n4ncnc(N)c34)C2)s1` (single isomer, unassigned) [Example 941], half-maximal inhibition at SGK1 (IC50) required 1 nM.

On SGK1, `Cc1nc(OC2CCC(N3CCC3)CC2)c(C(=O)N[C@@H]2CCCN(c3cc(-c4ccc(C(N)=O)c(F)c4)n4ncnc(N)c34)C2)s1` (single isomer, unassigned) [Example 943] gave an IC50 of 2 nM.

In the case of `CCN1CCC(Oc2nc(C)sc2C(=O)N[C@@H]2CCCN(c3cc(C4=CCN(C(C)=O)C4)n4ncnc(N)c34)C2)CC1(C)C` (single isomer, unassigned) [Example 946], the IC50 at SGK1 is 12 nM.

At SGK1, `CC(=O)N1CC=C(c2cc(N3CCC[C@@H](NC(=O)c4sc(Cl)cc4OC4CCN(C)C(C)(C)C4)C3)c3c(N)ncnn23)C1` (single isomer, unassigned) [Example 948] registered an IC50 of 2 nM.

Consider `Cc1nc(OC2CC3CC2CN3C(C)C)c(C(=O)N[C@@H]2CCCN(c3cc(-c4ccc(-n5cnnn5)c(F)c4)n4ncnc(N)c34)C2)s1` (single isomer, unassigned) [Example 949], for which the IC50 on SGK1 was determined as 0.8 nM.

`CC(=O)N1CC=C(c2cc(N3CCC[C@@H](NC(=O)c4sc(Cl)cc4OC4CC5CC(C4)N(C)C5)C3)c3c(N)ncnn23)C1` (single isomer, unassigned) [Example 952]: on SGK1, the IC50 was found to be 7 nM.

As for `COC(=O)N1CC=C(c2cc(N3CCC[C@@H](NC(=O)c4sc(C)nc4OC4CC5CC(C4)N(C(C)C)C5)C3)c3c(N)ncnn23)C1` (single isomer, unassigned) [Example 953], the midpoint of inhibition against SGK1, the IC50, lay at 7 nM.

On to `Cc1nc(OC2COC3(CCNCC3)C2)c(C(=O)N[C@@H]2CCCN(c3cc(-c4ccc(C(N)=O)c(F)c4)n4ncnc(N)c34)C2)s1` (single isomer, unassigned) [Example 954], for which, on SGK1, half-maximal inhibition (IC50) was put at 4 nM.

Compound `Cc1nc(OC2CC3CCC2CN3C)c(C(=O)N[C@@H]2CCCN(c3cc(-c4ccc(-n5cnnn5)nc4)n4ncnc(N)c34)C2)s1` (single isomer, unassigned) [Example 992] registered an IC50 at SGK1 of 10 nM.

For the compound `Cc1nc(OC2CC3CCC2CN3CCO)c(C(=O)N[C@@H]2CCCN(c3cc(-c4cnc(C#N)c(F)c4)n4ncnc(N)c34)C2)s1` (single isomer, unassigned) [Example 993], the midpoint of inhibition against SGK1, the IC50, lay at 2 nM.

For the compound `CCC1=C(c2cc(N3CCC[C@@H](NC(=O)c4sc(C)nc4O[C@H]4CC[C@@H](NC(C)CO)CC4)C3)c3c(N)ncnn23)COC1=O` (single isomer, unassigned) [Example 1019], the IC50 against SGK1 was 0.5 nM.

In the case of `CCC1=C(c2cc(N3CCC[C@@H](NC(=O)c4sc(C)nc4O[C@H]4CC[C@@H](NC(C)CO)CC4)C3)c3c(N)ncnn23)COC1=O` (single isomer, unassigned) [Example 1020], at SGK1, the IC50 came to 1.1 nM.

With `CCC1=C(c2cc(N3CCC[C@@H](NC(=O)c4sc(C)nc4OC4CCC(N5CC(O)C5)CC4)C3)c3c(N)ncnn23)COC1=O` (single isomer, unassigned) [Example 1021], the IC50 against SGK1 worked out at 0.7 nM.

On to `CCC1=C(c2cc(N3CCC[C@@H](NC(=O)c4sc(C)nc4OC4CCC(N[C@@H](C)COC)CC4)C3)c3c(N)ncnn23)COC1=O` (single isomer, unassigned) [Example 1023], for which the IC50 against SGK1 was found to be 0.8 nM.

`CCC1=C(c2cc(N3CCC[C@@H](NC(=O)c4sc(C)nc4OC4CCC(N[C@H](C)COC)CC4)C3)c3c(N)ncnn23)COC1=O` (single isomer, unassigned) [Example 1024]: the IC50 against SGK1 amounted to 0.8 nM.

As to `CC(=O)N1CC=C(c2cc(N3CCC[C@@H](NC(=O)c4sc(Cl)cc4OC4CCC(N5CCOCC5)CC4)C3)c3c(N)ncnn23)C1` (single isomer, unassigned; isomer 1) [Example 936], at SGK1, the IC50 amounted to 2 nM.

`Cc1nc(O[C@@H]2CCC[C@H](N(C)C)C2)c(C(=O)N[C@@H]2CCCN(c3cc(-c4ccc(C(N)=O)c(F)c4)n4ncnc(N)c34)C2)s1` (single isomer, unassigned; isomer 1) [Example 939]: the 50% inhibitory concentration (IC50) on SGK1 was found to be 0.9 nM.

`Nc1ncnn2c(-c3ccc(-n4cnnn4)c(F)c3)cc(N3CCC[C@@H](NC(=O)c4sc(Cl)cc4OC4CCC(O)CC4)C3)c12` (single isomer, unassigned; isomer 2) [Example 935] showed an IC50 at SGK1 of 0.2 nM.

Take “(R)-N-(1-(4-amino-7-12-(2-hydroxypropan-2-yl)pyrimidin-5-yl)pyrrolo[2,1-f][1,2,4]triazin-5-yl)piperidin-3-yl)-5-(difluoromethyl)thiophene-2-carboxamide [Example 519]”: the IC50 on full length SGK1 amounted to 1050 nM.

As to “(R)-N-(1-(4-amino-7-(1-(2,2-difluoroethyl)-6-oxo-1,6-dihydropyridin-3-yl)pyrrolo[2,1-f][1,2,4]triazin-5-yl)piperidin-3-yl)-5-chlorothiophene-2-carboxamide [Example 520]”, the IC50 at full length SGK1 is 3 nM.

For the compound “(R)-N-(1-(4-amino-7-(1-(isoxazole-3-carbonyl)-2,5-dihydro-1H-pyrrol-3-yl)pyrrolo[2,1-f|[1,2,4]triazin-5-yl)piperidin-3-y1)-5-chloro-3-(2-(dimethylamino)ethoxy)thiophene-2-carboxamide [Example 906]”, at full length SGK1, the IC50 was 1 nM.

For “(R)-N-(1-(4-amino-7-(1-ethyl-1H-pyrazol-5-yl)pyrrolo[2,1-f][1,2,4]triazin-5-yl)piperidin-3-yl)-6-(4-methylpiperazin-1-yl)picolinamide [Example 790]”, the IC50 at full length SGK1 is 30 nM.

As to “(R)-N-(1-(7-(1-acetyl-2,5-dihydro-1H-pyrrol-3-yl)-4-aminopyrrolo[2,1-f][1,2,4]triazin-5-yl)piperidin-3-yl)-5-chloro-3-(piperidin-4-yloxy)thiophene-2-carboxamide [Example 575]”, the IC50 at full length SGK1 came out at 1 nM.

For “Methyl (R)-3-(4-amino-5-(3- (5-(difluoromethyl)-3- morpholinothiophene-2- carboxamido)piperidin-1- yl)pyrrolo[2,1-f][1,2,4]triazin- 7-yl)-2,5-dihydro-1H-pyrrole- 1-carboxylate [Example 320]”, the IC50 at full length SGK1 was found to be 25 nM.

As to “methyl 3-(4-amino-5-((3R)-3-(5-chloro-3-((2-methylpiperidin-4-yl)oxy)thiophene-2-carboxamido)piperidin-1-yl)pyrrolo[2,1-f][1,2,4]triazin-7-yl)-2,5-dihydro-1H-pyrrole-1-carboxylate [Example 621]”, the IC50 at full length SGK1 was 6 nM.

Turning to “methyl (R)-3-(4-amino-5-(3-(6-(4-methylpiperazin-1-yl)picolinamido)piperidin-1-yl)pyrrolo[2,1-f][1,2,4]triazin-7-yl)-2,5-dihydro-1H-pyrrole-1-carboxylate [Example 789]”, the IC50 at full length SGK1 amounted to 17 nM.

As to “tert-butyl (R)-3- ((2-((1-(4-amino- 7-(6-cyanopyridin-3- yl)pyrrolo[2,1-f] [1,2,4]triazin-5- yl)piperidin-3- yl)carbamoyl) benzo[b]thiophen- 3-yl)oxy)azetidine- 1-carboxylate [Example 672]”, the half-inhibitory concentration (IC50) on full length SGK1 came out at 65 nM.
